{"source": "patent US20240226130A1", "about": "“4'-THIONUCLEOSIDE ANALOGUES AND THEIR PHARMACEUTICAL USE” (Gilead Sciences, Inc., priority 2022, published 2024)", "key": {"[1]": {"target": "DNA polymerase γ (Homo sapiens (Human), UniProt P54098)", "sequence (P54098 whole entry, looked up)": "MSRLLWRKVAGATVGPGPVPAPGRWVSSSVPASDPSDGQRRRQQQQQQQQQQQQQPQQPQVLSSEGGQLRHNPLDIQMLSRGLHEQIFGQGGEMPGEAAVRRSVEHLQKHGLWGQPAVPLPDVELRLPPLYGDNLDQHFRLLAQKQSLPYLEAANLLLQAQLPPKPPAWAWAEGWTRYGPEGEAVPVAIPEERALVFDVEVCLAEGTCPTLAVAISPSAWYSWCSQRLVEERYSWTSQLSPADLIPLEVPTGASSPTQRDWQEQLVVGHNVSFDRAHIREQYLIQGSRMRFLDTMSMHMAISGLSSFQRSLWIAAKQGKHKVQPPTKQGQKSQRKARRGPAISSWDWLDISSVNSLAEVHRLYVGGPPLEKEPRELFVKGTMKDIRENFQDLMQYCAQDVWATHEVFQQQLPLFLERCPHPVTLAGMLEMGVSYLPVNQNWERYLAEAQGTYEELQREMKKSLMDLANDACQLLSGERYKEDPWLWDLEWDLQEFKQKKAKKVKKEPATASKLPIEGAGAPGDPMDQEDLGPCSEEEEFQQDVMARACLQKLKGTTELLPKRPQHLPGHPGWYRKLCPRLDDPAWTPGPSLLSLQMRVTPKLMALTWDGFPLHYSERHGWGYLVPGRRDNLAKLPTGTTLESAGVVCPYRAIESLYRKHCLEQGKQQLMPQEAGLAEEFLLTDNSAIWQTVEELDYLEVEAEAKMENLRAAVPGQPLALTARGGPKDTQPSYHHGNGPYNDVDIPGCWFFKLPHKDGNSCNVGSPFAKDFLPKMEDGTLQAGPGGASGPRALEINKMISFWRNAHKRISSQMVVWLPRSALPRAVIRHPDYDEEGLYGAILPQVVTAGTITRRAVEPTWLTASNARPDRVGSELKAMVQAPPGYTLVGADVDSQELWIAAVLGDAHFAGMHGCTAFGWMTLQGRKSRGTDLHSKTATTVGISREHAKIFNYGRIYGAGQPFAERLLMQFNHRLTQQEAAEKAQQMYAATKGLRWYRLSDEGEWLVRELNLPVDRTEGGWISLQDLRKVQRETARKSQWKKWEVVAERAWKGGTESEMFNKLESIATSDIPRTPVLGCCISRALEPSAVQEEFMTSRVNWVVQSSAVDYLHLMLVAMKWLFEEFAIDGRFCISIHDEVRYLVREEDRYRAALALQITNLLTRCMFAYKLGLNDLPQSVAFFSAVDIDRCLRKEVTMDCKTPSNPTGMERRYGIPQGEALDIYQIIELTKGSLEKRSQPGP", "sequence (Q9UHN1 whole entry partner, looked up)": "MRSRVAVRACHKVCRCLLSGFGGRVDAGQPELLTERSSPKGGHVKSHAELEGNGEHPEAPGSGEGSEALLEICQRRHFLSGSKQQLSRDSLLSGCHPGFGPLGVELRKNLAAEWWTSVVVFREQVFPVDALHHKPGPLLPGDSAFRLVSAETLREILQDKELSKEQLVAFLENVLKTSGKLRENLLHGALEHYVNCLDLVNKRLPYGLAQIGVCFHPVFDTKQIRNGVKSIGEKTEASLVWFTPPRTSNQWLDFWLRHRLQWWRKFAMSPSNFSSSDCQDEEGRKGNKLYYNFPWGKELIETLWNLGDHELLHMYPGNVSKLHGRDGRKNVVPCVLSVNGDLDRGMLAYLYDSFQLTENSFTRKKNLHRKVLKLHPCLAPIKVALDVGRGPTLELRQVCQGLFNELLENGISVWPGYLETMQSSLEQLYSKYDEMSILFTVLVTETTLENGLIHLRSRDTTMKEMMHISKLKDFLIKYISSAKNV", "assay": "DNA polymerase γ single nucleotide incorporation (SNI) rate assay", "type": "biochemical", "conditions": "incorporation rate as a percentage relative to the corresponding natural dNTP; 50 μM analog", "experimental": "Example 12: DNA Polymerase γ Single Nucleotide Incorporation (SNI) Rate Assay\nThe DNA polymerase (pol) γ SNI assay utilized an annealed ^32P labeled primer-template complex of D19 [5′-G TCC CTG TTC GGG CGC CAC-3′] and D36 A/G/T/C [3′-CGACCGTCCAGGGACAAGCCCGCG (TGT/CGT/ACG/GCG) ATC TCT-5′] where the templating base was chosen to base pair to the natural dNTP and analogs assayed. 20 nM DNA pol γ large subunit and 100 nM pol γ accessory subunit were preincubated on ice for 5 minutes and added to reaction mix containing 50 mM Tris-Cl pH 8.0, 5 mM DTT, 0.2 mg/mL bSA, 200 nM D19/D36 mer and 10 mM MgCl2. […] The substrate and the incorporation products, D19 and D20-28, were quantified using a Typhoon Trio Imager and Image Quant TL Software. The nucleotide incorporation rate was calculated in Prism by fitting the product formation using the single exponential equation: [D20]=A*(1−e−k*t), where [D20] represents the amount (in nM) of the elongated product formed, t represents the reaction time, k represents the observed rate, and A represents the amplitude of the exponential. […]"}, "[2]": {"assay": "Rhesus pharmacokinetic study, oral compound 7 (plasma and PBMC)", "conditions": "for Intracellular concentration in PBMC: LOQ 0.16 μM compound 7, 0.04 μM triphosphate", "experimental": "The oral dose was administered via oral gavage, and after dose administration the dose apparatus was flushed with approximately 10 mL water before removal from the animal. Food was returned 4 hours after dosing. […] The K2EDTA tubes were kept chilled at approximately 5° C. until centrifugation (4° C., 5 minutes, 2000×g) to collect plasma. Centrifugation began within 1 hour of collection. Plasma samples were harvested, placed in micronic tubes, and maintained on dry ice prior to storage at −70° C. until analysis by LC-MS/MS. […] The sodium citrate tubes were then gently inverted 3-4 times and stored upright at ambient temperature until centrifugation to collect PBMCs. Centrifugation began as soon as possible following collection, within 6 hours after collection. The PBMCs were separated by centrifugation (30 minutes at 1500×g-1800×g, 18-20° C.), washed once with ice cold 0.9% NaCl and treated with red blood cell lysis buffer (3.5 g ammonium chloride and 0.036 g ammonium carbonate in 500 mL ultrapure water, prepared before first blood collection) for 10 minutes at ambient temperature. Subsequently, the cells were washed twice with ice cold 0.9% NaCl and the cell pellet maintained at −70° C. until analysis by LC-MS/MS."}, "[3]": {"target": "DNA polymerase α (Homo sapiens (Human), UniProt P09884)", "sequence (P09884 whole entry)": "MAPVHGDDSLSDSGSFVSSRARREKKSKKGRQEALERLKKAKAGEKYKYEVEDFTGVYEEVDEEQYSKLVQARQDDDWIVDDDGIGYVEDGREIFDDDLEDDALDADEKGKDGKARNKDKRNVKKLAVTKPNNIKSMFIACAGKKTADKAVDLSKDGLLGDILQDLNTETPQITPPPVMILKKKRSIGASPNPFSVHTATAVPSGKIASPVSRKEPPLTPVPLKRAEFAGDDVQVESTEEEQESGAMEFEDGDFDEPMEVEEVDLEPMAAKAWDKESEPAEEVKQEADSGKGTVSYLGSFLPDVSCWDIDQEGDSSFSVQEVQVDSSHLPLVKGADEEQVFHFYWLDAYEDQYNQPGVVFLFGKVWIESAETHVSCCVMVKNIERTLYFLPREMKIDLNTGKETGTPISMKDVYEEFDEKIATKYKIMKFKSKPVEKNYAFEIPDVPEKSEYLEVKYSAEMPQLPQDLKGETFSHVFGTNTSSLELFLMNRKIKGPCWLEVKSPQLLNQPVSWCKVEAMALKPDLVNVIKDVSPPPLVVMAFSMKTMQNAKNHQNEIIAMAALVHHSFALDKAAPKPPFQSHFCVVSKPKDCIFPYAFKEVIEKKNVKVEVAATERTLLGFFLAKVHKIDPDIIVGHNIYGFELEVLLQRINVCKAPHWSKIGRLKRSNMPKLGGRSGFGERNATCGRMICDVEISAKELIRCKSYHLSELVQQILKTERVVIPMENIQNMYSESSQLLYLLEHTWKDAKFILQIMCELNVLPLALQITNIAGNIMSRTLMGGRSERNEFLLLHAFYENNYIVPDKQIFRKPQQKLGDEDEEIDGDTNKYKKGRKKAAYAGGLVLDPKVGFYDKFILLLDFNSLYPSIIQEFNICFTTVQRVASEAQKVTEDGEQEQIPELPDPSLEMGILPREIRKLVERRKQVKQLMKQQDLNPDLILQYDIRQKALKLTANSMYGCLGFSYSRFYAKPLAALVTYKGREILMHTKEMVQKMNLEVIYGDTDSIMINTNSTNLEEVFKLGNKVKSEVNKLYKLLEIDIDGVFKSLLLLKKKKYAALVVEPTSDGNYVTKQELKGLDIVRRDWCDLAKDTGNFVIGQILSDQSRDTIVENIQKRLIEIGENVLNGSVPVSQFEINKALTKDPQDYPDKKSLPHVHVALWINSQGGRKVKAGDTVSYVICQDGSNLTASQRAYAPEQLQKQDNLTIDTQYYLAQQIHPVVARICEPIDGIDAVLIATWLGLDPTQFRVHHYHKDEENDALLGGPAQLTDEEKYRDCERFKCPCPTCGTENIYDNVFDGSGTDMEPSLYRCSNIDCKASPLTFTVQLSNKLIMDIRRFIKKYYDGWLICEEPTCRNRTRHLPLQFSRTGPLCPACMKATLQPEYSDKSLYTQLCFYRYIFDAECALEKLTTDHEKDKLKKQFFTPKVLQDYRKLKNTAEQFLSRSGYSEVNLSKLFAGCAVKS", "assay": "DNA polymerase α single nucleotide incorporation (SNI) rate assay", "type": "biochemical", "conditions": "incorporation rate as a percentage relative to the corresponding natural dNTP; 50 μM analog", "experimental": "Example 13: DNA Polymerase a Single Nucleotide Incorporation (SNI) Rate Assay\nThe DNA polymerase (pol) a SNI assay utilized an annealed ^32P labeled primer-template complex of D19 [5′-G TCC CTG TTC GGG CGC CAC-3′] and D36 A/G/T/C [3′-CGACCGTCCAGGGACAAGCCCGCG (TGT/CGT/ACG/GCG) ATC TCT-5′] where the templating base was chosen to base pair to the natural dNTP and analogs assayed. Reactions containing 50 mM Tris-Cl pH 8.0, 5 mM DTT, 0.2 mg/mL bSA, 200 nM D19/D36 mer and 10 mM MgCl2 and 5 nM DNA pol a were heated to 37° C. and initiated by addition of 50 μM (final) natural dNTP or analogs. At 0, 5, 10, 20, 40, and 60 min, 10 μL of the reaction mixture was removed and quenched with 10 μL of a gel loading buffer containing 100 mM EDTA, 80% formamide and bromophenol blue, and heated at 65° C. for 5 minutes. The samples were run on a 20% polyacrylamide gel (8 M urea) and the gel was exposed to a phosphorimager screen. The substrate and the incorporation products, D19 and D20-28, were quantified using a Typhoon Trio Imager and Image Quant TL Software. The nucleotide incorporation rate was calculated in Prism by fitting the product formation using the single exponential equation: [D20]=A*(1−e−k*t), where [D20] represents the amount (in nM) of the elongated product formed, t represents the reaction time, k represents the observed rate, and A represents the amplitude of the exponential. […]"}, "[4]": {"assay": "Rhesus pharmacokinetic study, intravenous compound 7 (plasma and PBMC)", "conditions": "for Intracellular concentration in PBMC: LOQ 2.5 μM compound 7, 0.63 μM triphosphate", "experimental": "Male Indian Origin Rhesus Monkeys were used for the pharmacokinetic studies. Studies were conducted under a protocol approved by IACUC. […] The intravenous dose was administered as an approximately 30-minute infusion, and after dose administration the dose apparatus was flushed with approximately 1 mL saline before removal from the animal. Food was returned 4 hours after dosing. […] The K2EDTA tubes were kept chilled at approximately 5° C. until centrifugation (4° C., 5 minutes, 2000×g) to collect plasma. Centrifugation began within 1 hour of collection. Plasma samples were harvested, placed in micronic tubes, and maintained on dry ice prior to storage at −70° C. until analysis by LC-MS/MS. […] The sodium citrate tubes were then gently inverted 3-4 times and stored upright at ambient temperature until centrifugation to collect PBMCs. Centrifugation began as soon as possible following collection, within 6 hours after collection. The PBMCs were separated by centrifugation (30 minutes at 1500×g-1800×g, 18-20° C.), washed once with ice cold 0.9% NaCl and treated with red blood cell lysis buffer (3.5 g ammonium chloride and 0.036 g ammonium carbonate in 500 mL ultrapure water, prepared before first blood collection) for 10 minutes at ambient temperature. Subsequently the cells were washed twice with ice cold 0.9% NaCl, the cell pellet resuspended in ice cold RIPA buffer (fortified with Pierce protease ad phosphatase inhibitor tablet), snap frozen in liquid nitrogen, and maintained at −70° C. until analysis by LC-MS/MS."}}}
{"substance": "Hemitriethylamine ((2R,3S,5R)-5-(4-amino-5-fluoro-2-oxopyrimidin-1(2H)-yl)-2-ethynyl-3-hydroxytetrahydrothiophen-2-yl)methyl triphosphate [Compound 8]", "values": [{"measurement": "DNA Pol γ SNIR", "setting": "[1]", "result": 1.3}, {"measurement": "Intracellular concentration in PBMC", "setting": "[2]; 12 hr after oral 7.5 mg/kg compound 7", "result": "1.43 ± 0.45", "unit": "µM"}, {"measurement": "Intracellular concentration in PBMC", "setting": "[2]; 24 hr after oral 7.5 mg/kg compound 7", "result": "1.78 ± 0.57", "unit": "µM"}, {"measurement": "Intracellular concentration in PBMC", "setting": "[2]; 48 hr after oral 7.5 mg/kg compound 7", "result": "1.15 ± 0.76", "unit": "µM"}, {"measurement": "Intracellular concentration in PBMC", "setting": "[2]; 72 hr after oral 7.5 mg/kg compound 7", "result": "0.47 ± 0.22", "unit": "µM"}, {"measurement": "Intracellular concentration in PBMC", "setting": "[2]; 120 hr after oral 7.5 mg/kg compound 7", "result": "0.17 ± 0.01", "unit": "µM"}, {"measurement": "Intracellular concentration in PBMC", "setting": "[2]; 168 hr after oral 7.5 mg/kg compound 7", "result": "0.09 ± 0.02", "unit": "µM"}, {"measurement": "Calculated half-life of triphosphate metabolite", "setting": "[2]; in PBMC, oral 7.5 mg/kg compound 7", "result": "Calculated half-life of triphosphate metabolite: 43.1 ± 19.3 hours"}, {"measurement": "DNA Pol α SNIR", "setting": "[3]", "result": 2.6}, {"measurement": "Intracellular concentration in PBMC", "setting": "[4]; 12 hr after intravenous 1 mg/kg compound 7", "result": "2.19 ± 0.31", "unit": "µM"}, {"measurement": "Intracellular concentration in PBMC", "setting": "[4]; 24 hr after intravenous 1 mg/kg compound 7", "result": "1.34 ± 0.14", "unit": "µM"}, {"measurement": "Intracellular concentration in PBMC", "setting": "[4]; 48 hr after intravenous 1 mg/kg compound 7", "result": "0.42 ± 0.06", "unit": "µM"}, {"measurement": "Intracellular concentration in PBMC", "setting": "[4]; 72 hr after intravenous 1 mg/kg compound 7", "result": "BLQ"}, {"measurement": "Intracellular concentration in PBMC", "setting": "[4]; 144 hr after intravenous 1 mg/kg compound 7", "result": "BLQ"}, {"measurement": "Intracellular concentration in PBMC", "setting": "[4]; 168 hr after intravenous 1 mg/kg compound 7", "result": "BLQ"}, {"measurement": "Calculated half life of triphosphate metabolite", "setting": "[4]; in PBMC, intravenous 1 mg/kg compound 7", "result": "Calculated half life of triphosphate metabolite: 19.8 ± 9.3 hours"}]}
